Measured values taken from EP0946179B1 (ELI LILLY AND COMPANY, priority 1996, dated 1997).

Tests used:
[1] = double-blind multicenter clinical trial, olanzapine versus placebo; assay type: in vivo; conditions: patients randomized to olanzapine or placebo
From the text: A double-blind multicenter clinical trial was designed to assess the safety and efficacy of olanzapine. Patients were randomized to olanzapine or placebo.

5-HT1C receptor = molecular target: T1, 5-HT1C receptor (Homo sapiens, UniProt P28335); assay: pharmacological studies, 5-HT1C receptor activity
T1 sequence (P28335 33-458): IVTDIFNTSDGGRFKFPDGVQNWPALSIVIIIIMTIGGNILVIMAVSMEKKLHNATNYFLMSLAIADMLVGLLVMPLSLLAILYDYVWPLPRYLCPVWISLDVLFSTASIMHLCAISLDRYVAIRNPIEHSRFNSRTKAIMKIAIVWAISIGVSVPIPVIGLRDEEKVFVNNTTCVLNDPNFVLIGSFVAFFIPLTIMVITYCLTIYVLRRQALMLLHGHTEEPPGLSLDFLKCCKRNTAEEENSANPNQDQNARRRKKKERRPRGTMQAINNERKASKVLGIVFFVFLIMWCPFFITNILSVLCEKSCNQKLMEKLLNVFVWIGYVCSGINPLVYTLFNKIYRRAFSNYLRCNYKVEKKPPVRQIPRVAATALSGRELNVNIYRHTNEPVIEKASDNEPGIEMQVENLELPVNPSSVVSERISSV

[2] = system: muscarinic cholinergic receptor; assay: pharmacological studies, muscarinic receptor activity

With `Cc1cc2c(s1)Nc1ccccc1N=C2N1CCN(C)CC1` [olanzapine, 2-methyl-4-(4-methyl-1-piperazinyl)-10H-thieno[2,3-b][1,5] benzodiazepine] the “usefulness for the treatment of autism” value [1] was “can be useful for the treatment of autism”, the “usefulness for the treatment of mental retardation” value [1] was “can be useful for the treatment of mental retardation” and the “activity at the 5-HT1C receptor” value (5-HT1C receptor) was “active”. The “muscarinic cholinergic receptor activity” value [2] was “has muscarinic cholinergic receptor activity”.
